Reference: ChEMBL document CHEMBL3244218, “beta-Adrenergic blocking agents with acute antihypertensive activity” (1979)

What was measured:
Rattus norvegicus [1] = experiment: Antihypertensive activity in spontaneously hypertensive rat assessed as maximum fall in mean arterial pressure at 5 mg/kg, po; format: functional, Artery
Rattus norvegicus [2] = experiment: Antihypertensive activity in spontaneously hypertensive rat assessed as maximum fall in mean arterial pressure at 20 mg/kg, po; format: functional, Artery
Canis familiaris [3] = organism: Canis familiaris; experiment: Peripheral vasodilating activity in mongrel dog assessed as increase in iliac blood flow at 1600 ug, ia; format: functional, Canis lupus familiaris, Artery
Rattus norvegicus [4] = experiment: Antihypertensive activity in spontaneously hypertensive rat assessed as maximum fall in mean arterial pressure at 0.312 mg/kg, po; format: functional, Artery
Canis familiaris [5] = experiment: In-vivo beta-adrenergic blocking activity in iv dosed mongrel dog assessed as blockade of isoproterenol-induced tachycardia by measuring heart rate; format: functional; conditions: Canis lupus familiaris
Canis familiaris [6] = experiment: Peripheral vasodilating activity in mongrel dog assessed as increase in iliac blood flow at 1600 ug, ia in presence of isoproterenol and 2000 ug/kg timolol; format: functional, Canis lupus familiaris, Artery
Canis familiaris [7] = experiment: In-vivo beta-adrenergic blocking activity in iv dosed mongrel dog assessed as blockade of isoproterenol-induced hypotension by measuring mean arterial pressure; format: functional; conditions: Canis lupus familiaris, Artery
Rattus norvegicus [8] = experiment: Antihypertensive activity in spontaneously hypertensive rat assessed as maximum fall in mean arterial pressure at 1.25 mg/kg, po; format: functional, Artery
Canis familiaris [9] = experiment: Peripheral vasodilating activity in mongrel dog assessed as increase in iliac blood flow at 1600 ug, ia in presence of isoproterenol and 1000 ug/kg timolol; format: functional, Canis lupus familiaris, Artery
Canis familiaris [10] = experiment: In-vivo beta-adrenergic blocking activity in iv dosed mongrel dog assessed as blockade of isoproterenol-induced bronchodilation by measuring pulmonary pressure; format: functional; conditions: Canis lupus familiaris
Canis familiaris [11] = organism: Canis familiaris; experiment: Peripheral vasodilating activity in mongrel dog assessed as increase in iliac blood flow at 250 ug, ia; format: functional, Canis lupus familiaris, Artery

## CC(C)(C)NCC(O)COc1ccc(-c2nc(-c3cccs3)c[nH]2)cc1 (racemic)
Rattus norvegicus [1]
  Activity: 35 mmHg
Rattus norvegicus [2]
  Activity: 58 mmHg
Canis familiaris [3]
  Activity: 28 mL/min
Rattus norvegicus [4]
  Activity: 12 mmHg
Canis familiaris [5]
  ED50: 0.016 mg/kg
Canis familiaris [6]
  Activity: 10 mL/min
Canis familiaris [7]
  ED50: 0.635 mg/kg
Rattus norvegicus [8]
  Activity: 36 mmHg

## CC(C)(C)NCC(O)COc1ccc(-c2ncc(C(F)(F)F)[nH]2)c2c1CCCC2 (racemic)
Rattus norvegicus [2]
  Activity: 22 mmHg
Canis familiaris [9]
  Activity: -10 mL/min
Canis familiaris [10]
  ED50: 0.1 mg/kg
Canis familiaris [3]
  Activity: -15 mL/min
Canis familiaris [5]
  ED50: 0.228 mg/kg
Canis familiaris [7]
  ED50: 0.167 mg/kg

## NNc1nncc2ccccc12 [HYDRALAZINE]
Canis familiaris [3]
  Activity: 66 mL/min

## CC(C)(C)NCC(O)COc1ccc(-c2ncc(C(N)=O)[nH]2)cc1 (racemic)
Rattus norvegicus [2]
  Activity: 14 mmHg
Canis familiaris [10]
  ED50: > 1 mg/kg
Canis familiaris [5]
  ED50: 0.262 mg/kg
Canis familiaris [7]
  ED50: > 1 mg/kg

## CC(C)(C)NCC(O)COc1cc(Cl)c(-c2ncc(C(F)(F)F)[nH]2)c(Cl)c1 (racemic)
Rattus norvegicus [1]
  Activity: 30 mmHg
Rattus norvegicus [8]
  Activity: 16 mmHg

## CC(C)(C)NCC(O)COc1ccc(-c2ncc(-c3ccccn3)[nH]2)cc1 (racemic)
Rattus norvegicus [1]
  Activity: 27 mmHg
Rattus norvegicus [2]
  Activity: 40 mmHg
Rattus norvegicus [8]
  Activity: 6 mmHg

## CC(C)(C)NCC(O)COc1ccc(-c2ncc(C(F)(F)F)[nH]2)cc1Cl (racemic)
Canis familiaris [11]
  Activity: 5 mL/min
Rattus norvegicus [1]
  Activity: 5 mmHg
Rattus norvegicus [2]
  Activity: 6 mmHg
Canis familiaris [10]
  ED50: 0.015 mg/kg
Canis familiaris [3]
  Activity: 17 mL/min
Canis familiaris [5]
  ED50: 0.016 mg/kg
Canis familiaris [7]
  ED50: 0.017 mg/kg

## CC(C)(C)NCC(O)COc1ccc(-c2ncc(C(F)(F)F)[nH]2)c(Cl)c1 (racemic)
Canis familiaris [11]
  Activity: -2 mL/min
Rattus norvegicus [1]
  Activity: 36 mmHg
Canis familiaris [10]
  ED50: 0.054 mg/kg
Canis familiaris [3]
  Activity: 2 mL/min
Canis familiaris [5]
  ED50: 0.027 mg/kg
Canis familiaris [7]
  ED50: 0.552 mg/kg
Rattus norvegicus [8]
  Activity: 28 mmHg

## CC(=O)Nc1ccc(OCC(O)CNC(C)C)cc1 (stereo not given) [PRACTOLOL]
Canis familiaris [10]
  ED50: 1.08 mg/kg
Canis familiaris [5]
  ED50: 0.115 mg/kg
Canis familiaris [7]
  ED50: 1 mg/kg

## COC(=O)c1cnc(-c2ccc(OCC(O)CNC(C)(C)C)cc2)[nH]1 (racemic)
Rattus norvegicus [1]
  Activity: 17 mmHg
Rattus norvegicus [2]
  Activity: 36 mmHg
Canis familiaris [3]
  Activity: 80 mL/min
Canis familiaris [5]
  ED50: 0.04 mg/kg
Canis familiaris [6]
  Activity: 29 mL/min
Canis familiaris [7]
  ED50: > 1 mg/kg

## CC(C)(C)NC[C@H](O)COc1ccc(-c2ncc[nH]2)cc1
Rattus norvegicus [2]
  Activity: 41 mmHg
Canis familiaris [3]
  Activity: 30 mL/min
Canis familiaris [5]
  ED50: 0.067 mg/kg
Canis familiaris [6]
  Activity: 0 mL/min
Canis familiaris [7]
  ED50: > 1 mg/kg
Rattus norvegicus [8]
  Activity: 19 mmHg

## CC(C)(C)NC[C@H](O)COc1ccc(-c2ncc(-c3cccs3)[nH]2)cc1.O=C(O)/C=C\C(=O)O
Rattus norvegicus [1]
  Activity: 33 mmHg
Canis familiaris [10]
  ED50: 0.433 mg/kg
Canis familiaris [3]
  Activity: 23 mL/min
Rattus norvegicus [4]
  Activity: 9 mmHg
Canis familiaris [5]
  ED50: 0.014 mg/kg
Canis familiaris [6]
  Activity: 15 mL/min
Canis familiaris [7]
  ED50: 0.234 mg/kg
Rattus norvegicus [8]
  Activity: 20 mmHg

## CC(C)(C)NCC(O)COc1ccc(-c2ncc(-c3ccco3)[nH]2)cc1 (racemic)
Rattus norvegicus [2]
  Activity: 35 mmHg
Canis familiaris [3]
  Activity: 80 mL/min
Canis familiaris [5]
  ED50: 0.015 mg/kg
Canis familiaris [6]
  Activity: 40 mL/min
Canis familiaris [7]
  ED50: 0.3 mg/kg

## CC(C)(C)NCC(O)COc1ccc(-c2ncc(-c3c(F)c(F)c(F)c(F)c3F)[nH]2)cc1 (racemic)
Rattus norvegicus [1]
  Activity: 19 mmHg
Rattus norvegicus [2]
  Activity: 40 mmHg
Canis familiaris [3]
  Activity: 56 mL/min
Canis familiaris [5]
  ED50: 0.082 mg/kg
Canis familiaris [6]
  Activity: 48 mL/min
Canis familiaris [7]
  ED50: 0.3 mg/kg
Rattus norvegicus [8]
  Activity: 21 mmHg

## COc1ccc(-c2cnc(-c3ccc(OC[C@@H](O)CNC(C)(C)C)cc3)[nH]2)cc1.O=C(O)/C=C\C(=O)O
Rattus norvegicus [1]
  Activity: 28 mmHg
Rattus norvegicus [2]
  Activity: 39 mmHg
Canis familiaris [10]
  ED50: 0.48 mg/kg
Canis familiaris [3]
  Activity: 26 mL/min
Canis familiaris [5]
  ED50: 0.027 mg/kg
Canis familiaris [6]
  Activity: 16 mL/min
Canis familiaris [7]
  ED50: 0.525 mg/kg
Rattus norvegicus [8]
  Activity: 10 mmHg

## CC(C)(C)NCC(O)COc1ccc(-c2ncc(-c3ccc(Cl)c(Cl)c3)[nH]2)cc1 (racemic)
Rattus norvegicus [1]
  Activity: 35 mmHg
Rattus norvegicus [2]
  Activity: 49 mmHg
Canis familiaris [10]
  ED50: 0.097 mg/kg
Canis familiaris [3]
  Activity: 56 mL/min
Canis familiaris [5]
  ED50: 0.123 mg/kg
Canis familiaris [6]
  Activity: 15 mL/min
Canis familiaris [7]
  ED50: 0.117 mg/kg
Rattus norvegicus [8]
  Activity: 36 mmHg

## CC(C)(C)NCC(O)COc1ccc(-c2ncc(C(F)(F)F)[nH]2)c2ccccc12 (racemic)
Rattus norvegicus [1]
  Activity: 21 mmHg
Rattus norvegicus [2]
  Activity: 40 mmHg
Canis familiaris [9]
  Activity: 40 mL/min
Canis familiaris [3]
  Activity: 35 mL/min
Canis familiaris [5]
  ED50: 0.186 mg/kg
Canis familiaris [7]
  ED50: > 1 mg/kg

## CC(C)(C)NCC(O)COc1ccc(-c2ncc(-c3cccnc3)[nH]2)cc1 (racemic)
Rattus norvegicus [1]
  Activity: 28 mmHg
Rattus norvegicus [2]
  Activity: 13 mmHg
Canis familiaris [3]
  Activity: 64 mL/min
Canis familiaris [5]
  ED50: 0.054 mg/kg
Canis familiaris [6]
  Activity: 40 mL/min
Canis familiaris [7]
  ED50: > 1 mg/kg

## Cc1cc(OCC(O)CNC(C)(C)C)cc(C)c1-c1ncc(C(F)(F)F)[nH]1 (racemic)
Rattus norvegicus [1]
  Activity: 20 mmHg
Rattus norvegicus [2]
  Activity: 30 mmHg
Canis familiaris [9]
  Activity: 10 mL/min
Canis familiaris [10]
  ED50: 0.163 mg/kg
Canis familiaris [3]
  Activity: 5 mL/min
Canis familiaris [5]
  ED50: 0.091 mg/kg
Canis familiaris [7]
  ED50: > 1 mg/kg
Rattus norvegicus [8]
  Activity: 31 mmHg

## COc1ccc(-c2cnc(-c3ccc(OCC(O)CNC(C)(C)C)cc3)[nH]2)cc1 (racemic)
Rattus norvegicus [1]
  Activity: 29 mmHg
Canis familiaris [3]
  Activity: 25 mL/min
Rattus norvegicus [4]
  Activity: 12 mmHg
Canis familiaris [5]
  ED50: 0.04 mg/kg
Canis familiaris [6]
  Activity: 20 mL/min
Canis familiaris [7]
  ED50: > 1 mg/kg
Rattus norvegicus [8]
  Activity: 21 mmHg

## CC(C)(C)NCC(O)COc1ccc(-c2ncc(C(F)(F)F)[nH]2)c(Cl)c1Cl (racemic)
Rattus norvegicus [1]
  Activity: 16 mmHg
Rattus norvegicus [2]
  Activity: 49 mmHg

## CC(C)(C)NCC(O)COc1ccc(-c2ncc(-c3ccccc3)[nH]2)cc1 (racemic)
Rattus norvegicus [1]
  Activity: 30 mmHg
Rattus norvegicus [2]
  Activity: 54 mmHg
Canis familiaris [10]
  ED50: 0.095 mg/kg
Canis familiaris [3]
  Activity: 46 mL/min
Canis familiaris [5]
  ED50: 0.035 mg/kg
Canis familiaris [6]
  Activity: 42 mL/min
Canis familiaris [7]
  ED50: 0.083 mg/kg
Rattus norvegicus [8]
  Activity: 20 mmHg

## Cc1cnc(-c2ccc(OC[C@@H](O)CNC(C)(C)C)cc2)[nH]1.O=C(O)/C=C\C(=O)O
Rattus norvegicus [1]
  Activity: 19 mmHg
Rattus norvegicus [2]
  Activity: 41 mmHg
Canis familiaris [10]
  ED50: 0.277 mg/kg
Canis familiaris [3]
  Activity: 59 mL/min
Canis familiaris [5]
  ED50: 0.03 mg/kg
Canis familiaris [6]
  Activity: 32 mL/min
Canis familiaris [7]
  ED50: 1 mg/kg
Rattus norvegicus [8]
  Activity: 24 mmHg

## Cc1c(OCC(O)CNC(C)(C)C)ccc(-c2ncc(C(F)(F)F)[nH]2)c1C (racemic)
Rattus norvegicus [1]
  Activity: 24 mmHg
Rattus norvegicus [2]
  Activity: 30 mmHg
Canis familiaris [9]
  Activity: 19 mL/min
Canis familiaris [10]
  ED50: 0.055 mg/kg
Canis familiaris [3]
  Activity: 23 mL/min
Canis familiaris [5]
  ED50: 0.071 mg/kg
Canis familiaris [7]
  ED50: 0.582 mg/kg
Rattus norvegicus [8]
  Activity: 27 mmHg

## Cc1cc(OC[C@@H](O)CNC(C)(C)C)ccc1-c1ncc(C(F)(F)F)[nH]1
Rattus norvegicus [1]
  Activity: 51 mmHg
Canis familiaris [9]
  Activity: 39 mL/min
Canis familiaris [10]
  ED50: 0.0364 mg/kg
Canis familiaris [3]
  Activity: 36 mL/min
Canis familiaris [5]
  ED50: 0.0157 mg/kg
Canis familiaris [7]
  ED50: 0.0927 mg/kg
Rattus norvegicus [8]
  Activity: 36 mmHg

## CC(C)(C)NCC(O)COc1ccc(-c2ncc(-c3ccc(Cl)cc3)[nH]2)cc1 (racemic)
Rattus norvegicus [1]
  Activity: 35 mmHg
Rattus norvegicus [2]
  Activity: 32 mmHg
Canis familiaris [10]
  ED50: 0.0827 mg/kg
Canis familiaris [5]
  ED50: 0.0562 mg/kg
Canis familiaris [7]
  ED50: 0.137 mg/kg
Rattus norvegicus [8]
  Activity: 32 mmHg

## CC(C)(C)NCC(O)COc1ccc(-c2ncc(-c3ccc(F)cc3)[nH]2)cc1 (racemic)
Rattus norvegicus [2]
  Activity: 13 mmHg
Canis familiaris [3]
  Activity: 42 mL/min
Canis familiaris [5]
  ED50: 0.019 mg/kg
Canis familiaris [6]
  Activity: 32 mL/min
Canis familiaris [7]
  ED50: 0.139 mg/kg
